“Also recorded” adds a separate entry of the source.
Columns and labels:
EAAT2 [1] = target: T1, EAAT2 (Homo sapiens, UniProt P43004); test: OSTA of EAAT2-mediated glutamate transport (cytosolic iGluSnFR); assay type: cell-based; conditions: for effect on EAAT2 activity (negative control): 10 mM sodium salicylate, same Na+/K+/glutamate stimulus
T1 construct: expressed in transfected cells; host or cells: HEK-293 (ATCC #CRL-1573)

EAAT2 [2] = target: T1, EAAT2; conditions: EAAT2 inhibitor; Tsukada et al., 2005 Neuropharmacology 48:479-491; cited from earlier work
SLC26a3 = SLC26a3 (Homo sapiens, UniProt P40879); conditions: washout after 10 mM salicylate; HEK-293 cells expressing SLC26a3
Sequence of SLC26a3 (P40879 whole entry, species assumed): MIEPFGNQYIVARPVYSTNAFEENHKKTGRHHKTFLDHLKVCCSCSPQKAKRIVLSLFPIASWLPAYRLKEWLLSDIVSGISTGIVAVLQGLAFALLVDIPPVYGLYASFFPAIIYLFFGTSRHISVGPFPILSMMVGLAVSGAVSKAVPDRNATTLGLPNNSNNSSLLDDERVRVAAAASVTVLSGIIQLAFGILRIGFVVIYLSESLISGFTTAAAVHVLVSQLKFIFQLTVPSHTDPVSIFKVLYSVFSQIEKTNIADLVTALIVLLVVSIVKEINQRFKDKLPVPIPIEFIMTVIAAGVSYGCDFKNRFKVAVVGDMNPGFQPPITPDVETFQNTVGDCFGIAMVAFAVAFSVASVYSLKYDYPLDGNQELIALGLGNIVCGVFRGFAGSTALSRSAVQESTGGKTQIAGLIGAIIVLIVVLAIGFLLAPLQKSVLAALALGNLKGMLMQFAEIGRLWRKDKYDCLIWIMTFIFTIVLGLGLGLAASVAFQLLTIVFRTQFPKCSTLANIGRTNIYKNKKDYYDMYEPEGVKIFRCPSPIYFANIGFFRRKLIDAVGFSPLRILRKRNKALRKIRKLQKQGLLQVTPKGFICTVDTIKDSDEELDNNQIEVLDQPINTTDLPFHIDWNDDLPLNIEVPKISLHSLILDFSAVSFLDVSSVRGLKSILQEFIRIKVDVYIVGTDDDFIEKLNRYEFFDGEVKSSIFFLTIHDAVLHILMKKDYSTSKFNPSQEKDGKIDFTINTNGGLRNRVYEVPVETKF

T1 sequence (P43004 whole entry, species assumed, the tested form may be a part): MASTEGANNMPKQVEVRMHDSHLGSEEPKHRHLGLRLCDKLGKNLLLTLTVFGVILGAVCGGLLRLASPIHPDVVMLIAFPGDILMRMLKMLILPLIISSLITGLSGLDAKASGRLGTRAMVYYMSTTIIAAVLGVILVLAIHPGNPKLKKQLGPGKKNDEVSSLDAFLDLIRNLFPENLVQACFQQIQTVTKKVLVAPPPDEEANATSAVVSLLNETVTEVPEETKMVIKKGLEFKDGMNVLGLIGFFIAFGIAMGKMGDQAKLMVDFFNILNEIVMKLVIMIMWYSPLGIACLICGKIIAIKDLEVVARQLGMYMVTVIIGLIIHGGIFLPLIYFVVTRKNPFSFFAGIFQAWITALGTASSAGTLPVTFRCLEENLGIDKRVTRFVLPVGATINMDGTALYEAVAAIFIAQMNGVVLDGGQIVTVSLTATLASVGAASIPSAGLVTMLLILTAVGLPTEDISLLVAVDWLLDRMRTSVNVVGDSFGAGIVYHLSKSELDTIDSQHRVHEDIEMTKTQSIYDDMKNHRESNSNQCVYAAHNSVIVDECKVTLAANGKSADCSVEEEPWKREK

Structure (SMILES)	onset and washout of EAAT2 inhibition (EAAT2 [1]; 2 μM TFB-TBOA)	effect on EAAT2 glutamate oscillations (EAAT2 [1]; 2 μM TFB-TBOA, combined Na+/K+/glutamate stimulus (0-10 mM glutamate), HEK-293 cells)	IC50 (EAAT2 [2])	effect on EAAT2 activity (negative control) (EAAT2 [1]; HEK-293 cells)	effect on EAAT2 activity (negative control) (EAAT2 [1]; HEK-293 cells, listed as sodium salicylate)	oscillating response after washout (SLC26a3)
N[C@H](C(=O)O)[C@H](OCc1cccc(NC(=O)c2ccc(C(F)(F)F)cc2)c1)C(=O)O [TFB-TBOA]	rapid onset and slower washout	complete abrogation of oscillating signal; also recorded: completely abolished the oscillations	~17 nM	–	–	–
O=C([O-])c1ccccc1O.[Na+] [salicylate, sodium salicylate]	–	–	–	relative indifference	no effect on EAAT2 activity	return to the initial oscillating response

— US20190094204A1, “MEMBRANE TRANSPORTER ASSAY AND METHODS OF USE” (Howard Hughes Medical Institute, priority 2017, published 2019)
